Results reported in ChEMBL document CHEMBL4673260, “Pyridine alkaloids with activity in the central nervous system” (Bioorg Med Chem, 2020).

Experiments:
[1] = target: T1, Muscarinic acetylcholine receptor M1 (Rattus norvegicus) (UniProt P08482); conditions: filed as antagonist, time 40.0 min
T1 sequence (whole entry): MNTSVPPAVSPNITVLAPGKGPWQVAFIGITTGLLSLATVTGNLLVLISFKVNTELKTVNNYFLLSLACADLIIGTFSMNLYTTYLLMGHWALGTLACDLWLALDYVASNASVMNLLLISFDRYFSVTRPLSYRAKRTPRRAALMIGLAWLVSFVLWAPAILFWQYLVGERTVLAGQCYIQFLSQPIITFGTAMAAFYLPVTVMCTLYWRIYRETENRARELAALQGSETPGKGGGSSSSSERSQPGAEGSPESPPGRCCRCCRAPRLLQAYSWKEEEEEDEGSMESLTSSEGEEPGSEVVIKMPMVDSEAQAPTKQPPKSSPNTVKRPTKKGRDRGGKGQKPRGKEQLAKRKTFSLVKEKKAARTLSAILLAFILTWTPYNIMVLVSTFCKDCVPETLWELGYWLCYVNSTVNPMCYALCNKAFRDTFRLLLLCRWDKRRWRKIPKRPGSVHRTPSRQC

[2] = target: T1, Muscarinic acetylcholine receptor M1 (Rattus norvegicus); conditions: filed as antagonist, time 60.0 min
[3] = target: T2, Muscarinic acetylcholine receptor M2 (Rattus norvegicus, UniProt P10980); assay: Inhibition of [3H]-methyl-quinuclidinyl benzilate binding to rat heart muscarinic M2 receptor by radioligand binding assay
T2 sequence (P10980 whole entry): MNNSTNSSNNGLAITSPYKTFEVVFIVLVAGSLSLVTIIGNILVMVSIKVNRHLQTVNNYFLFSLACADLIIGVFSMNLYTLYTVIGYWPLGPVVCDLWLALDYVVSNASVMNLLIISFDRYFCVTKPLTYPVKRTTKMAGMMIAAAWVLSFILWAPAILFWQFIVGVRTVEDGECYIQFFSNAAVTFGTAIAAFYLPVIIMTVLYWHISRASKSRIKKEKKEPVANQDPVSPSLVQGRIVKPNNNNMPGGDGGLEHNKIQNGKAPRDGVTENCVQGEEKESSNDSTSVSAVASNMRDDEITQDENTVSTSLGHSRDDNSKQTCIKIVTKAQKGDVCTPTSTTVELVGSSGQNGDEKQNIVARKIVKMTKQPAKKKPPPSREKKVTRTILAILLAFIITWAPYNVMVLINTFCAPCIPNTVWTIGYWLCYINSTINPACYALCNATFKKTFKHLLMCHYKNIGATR

[4] = target: T3, Muscarinic acetylcholine receptor M1 (Rattus norvegicus, UniProt P08482); assay: Inhibition of [3H]-methyl-quinuclidinyl benzilate binding to rat brain muscarinic M1 receptor by radioligand binding assay
T3 sequence (P08482 whole entry): T1 sequence (whole entry)

[5] = target: Muscarinic acetylcholine receptor M3 (Rattus norvegicus, UniProt P08483); assay: Inhibition of [3H]-methyl-quinuclidinyl benzilate binding to rat salivary gland muscarinic M3 receptor by radioligand binding assay
Sequence of Muscarinic acetylcholine receptor M3 (P08483 whole entry): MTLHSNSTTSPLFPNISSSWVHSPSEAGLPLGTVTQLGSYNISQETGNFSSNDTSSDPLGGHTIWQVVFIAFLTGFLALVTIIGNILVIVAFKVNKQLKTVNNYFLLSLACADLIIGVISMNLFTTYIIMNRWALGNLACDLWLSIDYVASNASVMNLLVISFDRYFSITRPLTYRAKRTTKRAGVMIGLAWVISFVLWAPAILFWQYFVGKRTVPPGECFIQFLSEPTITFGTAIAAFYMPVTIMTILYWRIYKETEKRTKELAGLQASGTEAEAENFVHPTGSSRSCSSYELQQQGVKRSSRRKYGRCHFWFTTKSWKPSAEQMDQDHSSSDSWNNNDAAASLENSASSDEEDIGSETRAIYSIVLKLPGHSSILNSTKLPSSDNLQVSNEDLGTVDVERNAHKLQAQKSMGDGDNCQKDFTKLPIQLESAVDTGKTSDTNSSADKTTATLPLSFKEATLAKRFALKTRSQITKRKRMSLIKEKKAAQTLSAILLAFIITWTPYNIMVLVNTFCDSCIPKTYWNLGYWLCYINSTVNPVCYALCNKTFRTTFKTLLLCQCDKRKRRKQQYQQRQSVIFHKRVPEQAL

[6] = target: Acetylcholinesterase (Homo sapiens, UniProt P22303); assay: Inhibition of acetylcholinesterase (unknown origin) using acetylthiocholine iodide as substrate incubated for 30 mins by Ellman's coupled enzyme assay
Sequence of Acetylcholinesterase (P22303 whole entry): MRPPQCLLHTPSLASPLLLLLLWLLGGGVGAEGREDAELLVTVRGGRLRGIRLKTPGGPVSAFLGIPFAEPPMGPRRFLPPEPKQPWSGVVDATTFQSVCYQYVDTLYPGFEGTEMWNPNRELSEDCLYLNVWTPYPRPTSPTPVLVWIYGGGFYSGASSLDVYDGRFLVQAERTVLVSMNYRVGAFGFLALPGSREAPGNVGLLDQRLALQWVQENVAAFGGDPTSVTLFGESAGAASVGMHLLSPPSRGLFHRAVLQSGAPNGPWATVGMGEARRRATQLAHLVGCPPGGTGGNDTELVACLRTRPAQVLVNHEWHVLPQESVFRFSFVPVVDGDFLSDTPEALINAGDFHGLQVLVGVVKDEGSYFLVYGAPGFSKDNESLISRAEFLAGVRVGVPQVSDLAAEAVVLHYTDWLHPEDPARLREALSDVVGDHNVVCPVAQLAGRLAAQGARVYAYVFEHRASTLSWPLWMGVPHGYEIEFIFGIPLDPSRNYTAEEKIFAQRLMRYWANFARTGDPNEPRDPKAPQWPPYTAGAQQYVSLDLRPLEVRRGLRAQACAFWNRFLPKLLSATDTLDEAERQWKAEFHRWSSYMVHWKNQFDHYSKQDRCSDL

[7] = Neurotoxicity in ip dosed mouse assessed as induction of epileptic convulsion; type: toxicity, organism-based; conditions: in vivo
[8] = Neurotoxicity in ip dosed mouse assessed as mouse death; type: toxicity, organism-based; conditions: in vivo
[9] = Neurotoxicity in ip dosed mouse assessed as induction of hindlimb tonic extension; type: toxicity, organism-based; conditions: in vivo
[10] = Induction of neurotoxicity in cray fish measured after 24 hrs; conditions: procambarus clarkii
[11] = target: Neuronal acetylcholine receptor subunit alpha-7 (Rattus norvegicus, UniProt Q05941); assay: Displacement of 125I-alpha-bungarotoxin from rat brain alpha7 nAChR by radioligand binding assay
Sequence of Neuronal acetylcholine receptor subunit alpha-7 (Q05941 whole entry): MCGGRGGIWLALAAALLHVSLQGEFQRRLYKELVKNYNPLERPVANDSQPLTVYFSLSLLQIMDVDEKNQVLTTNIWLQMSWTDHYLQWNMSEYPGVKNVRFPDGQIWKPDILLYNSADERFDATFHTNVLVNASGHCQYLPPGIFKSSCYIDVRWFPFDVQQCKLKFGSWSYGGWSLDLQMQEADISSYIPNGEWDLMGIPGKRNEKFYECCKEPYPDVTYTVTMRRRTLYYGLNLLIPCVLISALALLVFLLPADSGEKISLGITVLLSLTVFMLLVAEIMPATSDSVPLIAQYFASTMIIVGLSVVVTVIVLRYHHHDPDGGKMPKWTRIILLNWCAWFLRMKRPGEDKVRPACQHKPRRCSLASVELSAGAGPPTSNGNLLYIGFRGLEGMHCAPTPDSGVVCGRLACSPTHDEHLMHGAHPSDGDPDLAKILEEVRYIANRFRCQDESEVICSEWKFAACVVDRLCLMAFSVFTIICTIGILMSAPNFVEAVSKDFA

[12] = Toxicity in iv dosed Swiss-Webster mouse by up-and-down method; type: organism-based; conditions: in vivo
[13] = Displacement of [3H]-(-)-nicotine from rat cerebral cortex nAChR incubated for 60 mins by liquid scintillation spectrometry
[14] = organism: Rattus norvegicus; assay: Agonist activity at nAChR in rat striatal synaptosomes assessed as [3H]dopamine release relative to tetramethylammonium; type: subcellular; conditions: Striatum, filed as agonist
[15] = target: T4, Neuronal acetylcholine receptor; alpha4/beta2 (Homo sapiens, UniProt P17787+P43681); assay: Agonist activity at human brain alpha4beta2 nAChR expressed in Xenopus laevis oocytes assessed as peak response relative to acetylcholine response; type: cell-based; conditions: Oocyte
T4 sequence (P17787 whole entry): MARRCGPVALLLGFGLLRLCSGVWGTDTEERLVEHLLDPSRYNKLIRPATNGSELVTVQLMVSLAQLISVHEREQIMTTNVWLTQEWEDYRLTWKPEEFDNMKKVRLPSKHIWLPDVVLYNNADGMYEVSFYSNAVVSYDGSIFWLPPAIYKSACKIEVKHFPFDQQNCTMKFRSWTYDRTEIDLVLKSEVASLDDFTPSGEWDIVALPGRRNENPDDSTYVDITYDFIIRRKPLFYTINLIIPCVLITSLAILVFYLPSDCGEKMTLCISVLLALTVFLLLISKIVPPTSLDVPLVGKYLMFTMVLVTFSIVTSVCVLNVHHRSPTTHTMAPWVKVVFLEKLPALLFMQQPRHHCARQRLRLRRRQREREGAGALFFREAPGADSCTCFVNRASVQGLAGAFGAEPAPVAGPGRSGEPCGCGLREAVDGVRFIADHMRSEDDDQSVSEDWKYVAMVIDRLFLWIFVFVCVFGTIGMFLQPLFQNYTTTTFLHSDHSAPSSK
T4 sequence (P43681 whole entry): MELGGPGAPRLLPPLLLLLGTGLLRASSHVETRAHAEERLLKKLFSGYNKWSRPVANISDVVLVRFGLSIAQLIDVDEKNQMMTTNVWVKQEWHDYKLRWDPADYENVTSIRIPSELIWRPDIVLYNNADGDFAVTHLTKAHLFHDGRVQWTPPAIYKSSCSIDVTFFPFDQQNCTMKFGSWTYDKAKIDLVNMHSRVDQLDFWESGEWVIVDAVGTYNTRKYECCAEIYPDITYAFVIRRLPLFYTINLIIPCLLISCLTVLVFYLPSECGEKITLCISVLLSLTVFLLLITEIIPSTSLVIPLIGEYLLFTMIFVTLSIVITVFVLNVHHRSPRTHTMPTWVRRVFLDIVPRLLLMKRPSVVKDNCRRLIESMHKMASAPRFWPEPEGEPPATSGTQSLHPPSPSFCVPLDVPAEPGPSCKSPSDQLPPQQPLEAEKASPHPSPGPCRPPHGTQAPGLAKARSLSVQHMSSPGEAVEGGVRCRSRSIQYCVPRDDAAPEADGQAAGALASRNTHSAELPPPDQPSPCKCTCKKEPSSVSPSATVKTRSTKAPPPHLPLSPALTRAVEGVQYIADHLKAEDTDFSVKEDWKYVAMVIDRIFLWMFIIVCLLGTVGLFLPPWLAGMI

[16] = target: T4, Neuronal acetylcholine receptor; alpha4/beta2; assay: Agonist activity at human alpha4beta2 nAChR expressed in Xenopus oocytes; type: cell-based, Oocyte
[17] = target: Neuronal acetylcholine receptor; alpha4/beta2 (Rattus norvegicus, UniProt P09483+P12390); assay: Displacement of [3H]-cytisine from rat brain membrane alpha4beta2 nAChR; type: cell membranes
Sequence of Neuronal acetylcholine receptor; alpha4/beta2 (Rattus norvegicus, UniProt P09483+P12390) (P09483 whole entry): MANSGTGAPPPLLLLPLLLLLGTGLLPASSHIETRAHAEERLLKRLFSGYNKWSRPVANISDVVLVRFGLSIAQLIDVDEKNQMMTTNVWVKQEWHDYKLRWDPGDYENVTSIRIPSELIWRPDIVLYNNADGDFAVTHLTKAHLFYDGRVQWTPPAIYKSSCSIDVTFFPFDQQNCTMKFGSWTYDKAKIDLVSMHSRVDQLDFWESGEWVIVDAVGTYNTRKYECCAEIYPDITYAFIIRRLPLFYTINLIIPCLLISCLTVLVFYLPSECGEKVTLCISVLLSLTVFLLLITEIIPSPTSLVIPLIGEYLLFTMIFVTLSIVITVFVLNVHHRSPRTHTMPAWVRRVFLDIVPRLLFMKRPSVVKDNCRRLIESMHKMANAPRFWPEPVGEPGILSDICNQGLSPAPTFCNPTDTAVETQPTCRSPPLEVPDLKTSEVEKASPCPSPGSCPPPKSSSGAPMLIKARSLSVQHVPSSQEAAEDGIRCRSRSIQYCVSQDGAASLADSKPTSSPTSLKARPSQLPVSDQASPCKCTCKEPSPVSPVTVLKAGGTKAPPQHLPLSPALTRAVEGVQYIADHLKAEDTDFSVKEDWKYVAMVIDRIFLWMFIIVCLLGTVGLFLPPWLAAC
Sequence of Neuronal acetylcholine receptor; alpha4/beta2 (Rattus norvegicus, UniProt P09483+P12390) (P12390 whole entry): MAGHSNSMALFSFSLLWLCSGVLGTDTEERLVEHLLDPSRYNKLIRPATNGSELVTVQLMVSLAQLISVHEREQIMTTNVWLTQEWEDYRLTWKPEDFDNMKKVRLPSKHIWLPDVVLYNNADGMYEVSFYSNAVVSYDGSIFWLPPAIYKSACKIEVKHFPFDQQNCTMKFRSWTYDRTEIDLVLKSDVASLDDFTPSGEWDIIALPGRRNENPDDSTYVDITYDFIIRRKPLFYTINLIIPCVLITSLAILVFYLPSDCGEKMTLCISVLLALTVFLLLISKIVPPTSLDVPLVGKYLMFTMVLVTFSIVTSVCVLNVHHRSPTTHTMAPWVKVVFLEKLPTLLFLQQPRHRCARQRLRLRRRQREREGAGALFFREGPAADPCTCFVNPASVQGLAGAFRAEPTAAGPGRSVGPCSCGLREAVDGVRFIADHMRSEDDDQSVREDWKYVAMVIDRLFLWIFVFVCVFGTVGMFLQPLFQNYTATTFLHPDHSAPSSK

[18] = target: T4, Neuronal acetylcholine receptor; alpha4/beta2; assay: Agonist activity at human alpha4beta2 nAChR expressed in Xenopus oocytes relative to control; type: cell-based; conditions: Oocyte, filed as agonist
[19] = target: Neuronal acetylcholine receptor; alpha4/beta2 (Rattus norvegicus) (UniProt P09483+P12390); assay: Agonist activity at rat alpha4beta2 expressed in Xenopus oocytes assessed as peak activation at 100 uM relative to control; type: cell-based; conditions: Oocyte, filed as agonist
[20] = target: T5, Dopamine beta-hydroxylase (Bos taurus) (UniProt P15101); assay: Inhibition of bovine adrenal medulla DBH at 0.5 uM relative to control
T5 sequence (whole entry): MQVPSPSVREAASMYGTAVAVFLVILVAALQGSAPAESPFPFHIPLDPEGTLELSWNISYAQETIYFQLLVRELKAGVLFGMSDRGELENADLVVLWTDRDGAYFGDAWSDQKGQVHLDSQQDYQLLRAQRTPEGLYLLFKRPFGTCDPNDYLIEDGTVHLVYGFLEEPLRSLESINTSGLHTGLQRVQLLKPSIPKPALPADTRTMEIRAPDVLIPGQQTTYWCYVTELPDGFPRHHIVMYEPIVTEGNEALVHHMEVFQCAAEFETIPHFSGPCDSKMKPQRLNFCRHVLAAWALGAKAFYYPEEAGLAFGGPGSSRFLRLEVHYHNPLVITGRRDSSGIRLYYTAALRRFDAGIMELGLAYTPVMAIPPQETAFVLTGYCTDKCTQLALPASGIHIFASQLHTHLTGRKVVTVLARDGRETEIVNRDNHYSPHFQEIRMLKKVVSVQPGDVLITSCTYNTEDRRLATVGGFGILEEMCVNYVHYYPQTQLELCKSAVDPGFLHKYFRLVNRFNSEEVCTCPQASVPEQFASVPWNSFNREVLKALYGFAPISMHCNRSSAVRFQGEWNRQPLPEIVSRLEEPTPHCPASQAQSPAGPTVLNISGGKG

[21] = target: T5, Dopamine beta-hydroxylase (Bos taurus); assay: Inhibition of bovine adrenal medulla DBH at 5 uM relative to control
[22] = target: T4, Neuronal acetylcholine receptor; alpha4/beta2
Description: Displacement of [3H]cytisine from human alpha4beta2 nAChR by radioligand competition analysis

[23] = target: T4, Neuronal acetylcholine receptor; alpha4/beta2; remark: listed apart in the source
Description: Displacement of [3H]cytisine from human alpha4beta2 nAChR by Cheng-Prusoff equation analysis

[24] = organism: Mus musculus; assay: animal or person
Description: Antinociceptive activity in naloxone treated mouse assessed as induction of Straub-tail response

`C[N+](C)(C)CCOC(N)=O` showed a Kapp [1] of 0.0049 µM and a Kapp [2] of 22 µM.

`c1cc2c[n+](c1)CCCCCCCCCCCCCc1ccc[n+](c1)CCCCCCCCCCCC2` gave an IC50 [3] of 42.3 µM, an IC50 [4] of 111 µM and an IC50 [5] of 149 µM.

With `CO[C@]1(c2cn(O)c(=O)c(C(=O)[C@H]3[C@@H]4CC[C@@H](C)C[C@H]4C=C[C@H]3C)c2O)CC[C@@H](O)[C@H]2O[C@H]21` the IC50 [6] was 0.81 µM.

In the case of `c1cc2c[n+](c1)CCCCCCCCCCCCCCc1ccc[n+](c1)CCCCCCCCCCCC2`, the IC50 [3] is reported as 79 µM, the IC50 [4] is reported as 233 µM and the IC50 [5] is reported as 282 µM.

With `O=C(O)C[C@@H]1[C@@H](C(=O)O)NC[C@@H]1c1ccc(C(=O)O)[nH]c1=O` the LD [7] was 7 mg/kg, the LD [8] was 7 mg/kg and the LD [9] was 7 mg/kg.

Compound `c1ccc(-c2cccnc2)nc1` [[2,3'']Bipyridinyl] has an LD50 [10] of 94 µg.

In the case of `c1cncc([C@H]2CCCCN2)c1`, the Ki [11] is reported as 3.7 µM and the LD50 [12] is reported as 11 mg/kg.

With `Clc1ccc(C2CC3CCC2N3)cn1` (stereo in doubt; (-)) [EPIBATIDINE] the IC50 [13] was 0.24 nM.

`C[C@@H]1CC[C@H]2[C@H](C(=O)c3c4c(cn(O)c3=O)[C@@]3(O)CC[C@H](O)[C@H](O4)[C@@H]3O)[C@H](C)C=C[C@@H]2C1` showed an IC50 [6] of 47 µM.

`Cc1cc([C@@H]2CCCN2C)on1` gave an Emax [14] of 91%.

Compound `C1=CC[C@H](c2cccnc2)NC1` has an Imax [15] of 25%.

`c1cncc(-c2cc(-c3cccnc3-c3cccnc3)ccn2)c1` gave an LD50 [10] of over 240 µg.

Compound `C1=C[C@H](c2cccnc2)NCC1` has an EC50 [16] of 310 nM, a Ki [17] of 136 nM and an Imax [18] of 102%.

With `CC(=O)OCC[N+](C)(C)C` the Activity [19] was 242%.

Work on `O=C(O)c1ccccn1` yielded an inhibition [20] of 55% and an inhibition [21] of 83%.

Compound `CN1CC2c3cccc(=O)n3CC3C2[C@H](CO)CC31` (some centres not stated) has an IC50 [22] of 3.9 nM and a Ki [23] of 1.3 nM.

`c1cc2c[n+](c1)CCCCCCCCCCCCCCc1ccc[n+](c1)CCCCCCCCCCCCCC2` showed an IC50 [3] of 194 µM, an IC50 [4] of 470 µM and an IC50 [5] of 612 µM.

Compound `CN1CC[C@]23c4c5ccc(O)c4O[C@H]2[C@@H](O)C=C[C@H]3[C@H]1C5` [MORPHINE] has an ED50 [24] of 10 mg/kg.
